Test results taken from US4435583A, “2-Halo-substituted monic acid A useful as antibacterial compounds” (Beecham Group p.l.c., priority 1981, dated 1984).
Values after ≈ are worked out from the molar mass of the structure shown.

Legend:
Type in all cases: cell-based
[1] = test system: Corynebacterium pyogenes CY1; assay: MIC against veterinary bacteria; conditions: Rhodococcus (subgen. Prescottella) equi, Diagnostic Sensitivity Test Agar, 18 hours, 37° C., read-out: MIC
Method: (§1) The values were determined using a two fold serial dilutions in Diagnostic Sensitivity Test Agar with an inoculum of 10^4 organisms and incubation for 18 hours at 37° C.

[2] = test system: E. coli E1; assay: MIC against veterinary bacteria; conditions: Escherichia coli, Diagnostic Sensitivity Test Agar, 18 hours, 37° C., read-out: MIC
Method: as §1

[3] = test system: Staph. aureus 152; assay: MIC against veterinary bacteria; conditions: Staphylococcus aureus, 152, 18 h, Diagnostic Sensitivity Test Agar, 37° C., read-out: MIC
Method: as §1

[4] = test system: Strep. suis (group D) SPS11; assay: MIC against veterinary bacteria; conditions: Streptococcus suis, 18 h, Diagnostic Sensitivity Test Agar, 37° C., read-out: MIC
Method: as §1

[5] = test system: Strep. dysgalactiae SPD1; assay: MIC against veterinary bacteria; conditions: Streptococcus dysgalactiae, SPD1, 18 h, Diagnostic Sensitivity Test Agar, 37° C., read-out: MIC
Method: as §1

[6] = test system: Erysipelothrix rhusiopathiae NCTC 8163; assay: MIC against veterinary bacteria; conditions: NCTC8163, Diagnostic Sensitivity Test Agar, 18 hours, 37° C., read-out: MIC
Method: as §1

[7] = test system: S. typhimurium S18; assay: MIC against veterinary bacteria; conditions: Salmonella enterica, Diagnostic Sensitivity Test Agar, 18 hours, 37° C., read-out: MIC
Method: as §1

[8] = test system: Past. multocida PA1; assay: MIC against veterinary bacteria; conditions: Pasteurella multocida, PA1, 18 h, Diagnostic Sensitivity Test Agar, 37° C., read-out: MIC
Method: as §1

[9] = test system: Staph. aureus B4; assay: MIC against veterinary bacteria; conditions: Staphylococcus aureus, B4, 18 h, Diagnostic Sensitivity Test Agar, 37° C., read-out: MIC
Method: as §1

[10] = test system: Past. haemolytica PA5; assay: MIC against veterinary bacteria; conditions: Mannheimia haemolytica, PA5, 18 h, Diagnostic Sensitivity Test Agar, 37° C., read-out: MIC
Method: as §1

[11] = test system: S. dublin S7; assay: MIC against veterinary bacteria; conditions: Salmonella enterica, Diagnostic Sensitivity Test Agar, 18 hours, 37° C., read-out: MIC
Method: as §1

[12] = test system: Strep. agalactiae SPA1; assay: MIC against veterinary bacteria; conditions: Streptococcus agalactiae, SPA1, 18 h, Diagnostic Sensitivity Test Agar, 37° C., read-out: MIC
Method: as §1

[13] = test system: Bord. bronchiseptica B09; assay: MIC against veterinary bacteria; conditions: Bordetella bronchiseptica, B09, 18 h, Diagnostic Sensitivity Test Agar, 37° C., read-out: MIC
Method: as §1

[14] = test system: Strep. uberis SPU1; assay: MIC against veterinary bacteria; conditions: Streptococcus uberis, SPU1, 18 h
Method: as §1

[15] = test system: Bord. bronchiseptica B08; assay: MIC against veterinary bacteria; conditions: Bordetella bronchiseptica, B08, 18 h, Diagnostic Sensitivity Test Agar, 37° C., read-out: MIC
Method: as §1

[16] = test system: Staph. aureus Oxford; assay: MIC against veterinary bacteria; conditions: Staphylococcus aureus, 18 h, Diagnostic Sensitivity Test Agar, 37° C., read-out: MIC
Method: as §1

[17] = test system: Past. multocida PA2; assay: MIC against veterinary bacteria; conditions: Pasteurella multocida, PA2, 18 h, Diagnostic Sensitivity Test Agar, 37° C., read-out: MIC
Method: as §1

[18] = test system: E. coli NCTC 10418; assay: MIC against veterinary bacteria; conditions: Escherichia coli, NCTC10418, Diagnostic Sensitivity Test Agar, 18 hours, 37° C., read-out: MIC
Method: as §1

[19] = test system: Strep. faecalis I; assay: MIC against human bacteria; conditions: Enterococcus faecalis, nutrient agar, 5% chocolated horse blood, 18 hours, 37° C., read-out: MIC
Method: (§2) The values were determined by serial dilutions in nutrient agar with 5% chocolated horse blood after incubations for 18 hours at 37° C.

[20] = test system: Sarcina lutea 8340; assay: MIC against human bacteria; conditions: Micrococcus luteus, nutrient agar, 5% chocolated horse blood, 18 hours, 37° C., read-out: MIC
Method: as §2

[21] = test system: P. mirabilis 889; assay: MIC against human bacteria; conditions: Proteus mirabilis, nutrient agar, 5% chocolated horse blood, 18 hours, 37° C., read-out: MIC
Method: as §2

[22] = test system: Strep. pneumoniae CN33; assay: MIC against human bacteria; conditions: Streptococcus pneumoniae, CN33, 18 h, nutrient agar, 5% chocolated horse blood, 37° C., read-out: MIC
Method: as §2

[23] = test system: Strep. 2788-B; assay: MIC against human bacteria; conditions: 18 h, nutrient agar, 5% chocolated horse blood, 37° C., read-out: MIC
Method: as §2

[24] = test system: Bacillus subtilis 6633; assay: MIC against human bacteria; conditions: Bacillus subtilis, 6633, 18 h, nutrient agar, 5% chocolated horse blood, 37° C., read-out: MIC
Method: as §2

[25] = test system: Ps. aeruginosa NCTC 10662; assay: MIC against human bacteria; conditions: Pseudomonas aeruginosa, NCTC10662, nutrient agar, 5% chocolated horse blood, 18 hours, 37° C., read-out: MIC
Method: as §2

[26] = test system: Corynebacterium xerosis 9755; assay: MIC against human bacteria; conditions: nutrient agar, 5% chocolated horse blood, 18 hours, 37° C., read-out: MIC
Method: as §2

[27] = test system: Haemophilus influenzae Q1; assay: MIC against human bacteria; conditions: nutrient agar, 5% chocolated horse blood, 18 hours, 37° C., read-out: MIC
Method: as §2

[28] = test system: Strep. pyrogenes R80/421-A; assay: MIC against human bacteria; conditions: 18 h, nutrient agar, 5% chocolated horse blood, 37° C., read-out: MIC
Method: as §2

[29] = test system: Strep. 641848-C; assay: MIC against human bacteria; conditions: 18 h, nutrient agar, 5% chocolated horse blood, 37° C., read-out: MIC
Method: as §2

[30] = test system: Staph. aureus W2827; assay: MIC against human bacteria; conditions: Staphylococcus aureus, W2827, 18 h, nutrient agar, 5% chocolated horse blood, 37° C., read-out: MIC
Method: as §2

[31] = test system: Staph. aureus Oxford; assay: MIC against human bacteria; conditions: Staphylococcus aureus, 18 h, nutrient agar, 5% chocolated horse blood, 37° C., read-out: MIC
Method: as §2

[32] = test system: E. coli ESS; assay: MIC against human bacteria; conditions: Escherichia coli, 18 h, nutrient agar, 5% chocolated horse blood, 37° C., read-out: MIC
Method: as §2

[33] = test system: Neisseria catarrhalis 1502; assay: MIC against human bacteria; conditions: Neisseria, 1502, 18 h, nutrient agar, 5% chocolated horse blood, 37° C., read-out: MIC
Method: as §2

[34] = test system: E. coli NCTC 10418; assay: MIC against human bacteria; conditions: Escherichia coli, NCTC10418, nutrient agar, 5% chocolated horse blood, 18 hours, 37° C., read-out: MIC
Method: as §2

[35] = test system: Staph. aureus Russell; assay: MIC against human bacteria; conditions: Staphylococcus aureus, 18 h, nutrient agar, 5% chocolated horse blood, 37° C., read-out: MIC
Method: as §2

[36] = test system: K. aerogenes A; assay: MIC against human bacteria; conditions: Klebsiella aerogenes, nutrient agar, 5% chocolated horse blood, 18 hours, 37° C., read-out: MIC
Method: as §2

[37] = test system: Past. multocida 1633; assay: MIC against human bacteria; conditions: Pasteurella multocida, 1633, 18 h, nutrient agar, 5% chocolated horse blood, 37° C., read-out: MIC
Method: as §2

## CC(CC1OCC(CC2OC2C(C)C(C)O)C(O)C1O)=C(F)C(=O)OCc1cccc([N+](=O)[O-])c1 [Example 4, 3-Nitrobenzyl 4-[5S-(2S,3S-epoxy-5S-hydroxy-4S-methylhexyl)-3R,4R-dihydroxytetrahydropyran-2S-yl]-2-fluoro-3-methylbut-2(Z)-enoate]
[1]
  MIC: 80 µg/mL (≈ 161 µM)
[2]
  MIC: > 80 µg/mL
[3]
  MIC: 1.25 µg/mL (≈ 2.51 µM)
[4]
  MIC: 5 µg/mL (≈ 10 µM)
[5]
  MIC: 0.312 µg/mL (≈ 0.627 µM)
[6]
  MIC: 80 µg/mL (≈ 161 µM)
[7]
  MIC: > 80 µg/mL
[8]
  MIC: 0.625 µg/mL (≈ 1.26 µM)
[9]
  MIC: 2.5 µg/mL (≈ 5.02 µM)
[10]
  MIC: 10 µg/mL (≈ 20.1 µM)
[11]
  MIC: > 80 µg/mL
[12]
  MIC: 1.25 µg/mL (≈ 2.51 µM)
[13]
  MIC: 10 µg/mL (≈ 20.1 µM)
[14]
  MIC: 0.156 µg/mL (≈ 0.314 µM)
[15]
  MIC: 80 µg/mL (≈ 161 µM)
[16]
  MIC: 1.25 µg/mL (≈ 2.51 µM)
[17]
  MIC: 0.312 µg/mL (≈ 0.627 µM)
[18]
  MIC: > 80 µg/mL
[19]
  MIC: > 100 µg/mL
[20]
  MIC: > 100 µg/mL
[21]
  MIC: > 100 µg/mL
[22]
  MIC: 0.5 µg/mL (≈ 1 µM)
[23]
  MIC: 2.5 µg/mL (≈ 5.02 µM)
[24]
  MIC: 0.5 µg/mL (≈ 1 µM)
[25]
  MIC: > 100 µg/mL
[26]
  MIC: > 100 µg/mL
[27]
  MIC: 0.5 µg/mL (≈ 1 µM)
[28]
  MIC: 0.5 µg/mL (≈ 1 µM)
[29]
  MIC: 0.5 µg/mL (≈ 1 µM)
[30]
  MIC: 2.5 µg/mL (≈ 5.02 µM)
[31]
  MIC: 2.5 µg/mL (≈ 5.02 µM)
[32]
  MIC: 1 µg/mL (≈ 2.01 µM)
[33]
  MIC: 0.5 µg/mL (≈ 1 µM)
[34]
  MIC: > 100 µg/mL
[35]
  MIC: 2.5 µg/mL (≈ 5.02 µM)
[36]
  MIC: > 100 µg/mL
[37]
  MIC: 2.5 µg/mL (≈ 5.02 µM)
